# Data from patent US20210060093A1, “COMBINATION THERAPY FOR TREATING OR PREVENTING CANCER” (4D Pharma Research Limited, priority 2018, published 2021).
# Tests used:
# RENCA tumour cells = assay: Antitumor activity, RENCA model; assay type: in vivo, mouse; conditions: D18 and D22, compared to untreated and vehicle groups, FIG. 3B
# Method: Treatment schedule—The start of first dosing was considered as D0. On D0, non-engrafted mice were randomized according to their individual body weight into groups of 9 mice using Vivo manager® software (Biosystemes, Couternon, France). On D0, the mice received vehicle (culture medium) or bacterial strain (2×10^8 in 200 μL, PO). On D14, all mice were engrafted with RENCA tumour cells injected SC into the ventral surface of the lower flank as described below. Treatment with anti-CTLA-4 (10 mg/kg, IP) and anti-PDL1 (clone 10F.9G2, 10 mg/kg) was initiated when tumours reached a volume of 50-70 mm3.
# Orthotopic induction of RENCA tumor cells in animals by SC injection—On D14, one million (1×10^6) RENCA tumor cells in 50 μL RPMI 1640 medium were transplanted via SC injection into the ventral surface of the lower flank of mice.
# Euthanasia—Each mouse was euthanized when it reached a humane endpoint as described in section below, or after a maximum of 6 weeks post start of dosing.
# Evaluation of tumour burden at euthanasia—At the time of termination, tumours were collected and their volume evaluated.
# Clinical monitoring—The length and width of the tumour was measured twice a week with callipers and the volume of the tumour was estimated by this formula [52]: […]
# immature dendritic cells = assay: Cytokine production in immature dendritic cells; assay type: cell-based; conditions: MRX518 10^7/ml, LPS 100 ng/ml, FIGS. 4b, 4d
# Method: A monocyte population was isolated from peripheral blood mononuclear cells (PBMCs). The monocyte cells were subsequently differentiated into immature dendritic cells. The immature dendritic cells were plated out at 200,000 cells/well and incubated with MRX518 at a final concentration of 10^7/ml, with the optional addition of LPS at a final concentration of 100 ng/ml. The negative control involved incubating the cells with RPMI media alone and positive controls incubated the cells with LPS at a final concentration of 100 ng/ml. The cytokine content of the cells was then analysed.
Compound,reduction in tumour size (RENCA tumour cells),level of IL-1β (immature dendritic cells)
CC(=O)O[C@H]1C(=O)[C@@]2(C)[C@H]([C@H](OC(=O)c3ccccc3)[C@]3(O)C[C@H](OC(=O)[C@H](O)[C@@H](NC(=O)c4ccccc4)c4ccccc4)C(C)=C1C3(C)C)[C@]1(OC(C)=O)CO[C@@H]1C[C@@H]2O [Paclitaxel],(almost) complete reduction in tumour size,–
lipopolysaccharide [LPS],–,but not IL-1β
